Drawing on patent US20050004126A1 (priority 2001, published 2005), this text covers IC50 for 25 molecules.

Several values for one entry are separate records, joined by “and”; a condition that tells them apart may be missing. Equal entries are not always repeated.

The target in one assay is MMP-13CD (catalytic domain of collagenase 3) (Homo sapiens, UniProt P45452). Nature of the assay: Thiopeptolide hydrolysis assay, MMP-13.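 Note: inhibition of enzymatic thiopeptolide substrate cleavage (100 µM) in pH 6.0 MES buffer with CaCl2 and DTNB, comparing hydrolysis with versus without inhibitor.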 Conditions: IC50 μM, Table V; MMP-13.
`COC(=O)c1ccc(Cn2c(=O)c3cc(C(=O)NCc4ccc5c(c4)OCO5)ccc3n3cnnc23)cc1` [Methyl 4-{7-[(1,3-benzodioxol-5-ylmethyl)-carbamoyl]-5-oxo-5H-[1,2,4]triazolo[4,3-a]quinazol-4-ylmethyl}benzoate]: the IC50 was 0.0011 µM.

In turn, `COC(=O)c1ccc(Cn2c(=O)c3cc(C(=O)NCc4ccncc4)ccc3n3cnnc23)cc1` [Methyl 4-{7-[(pyridin-4-ylmethyl)-carbamoyl]-5-oxo-5H-[1,2,4]triazolo[4,3-a]quinazol-4-ylmethyl}benzoate] yielded an IC50 of 0.012 µM.

With `COC(=O)Cc1ccc(Cn2c(=O)c3cc(C(=O)NCc4ccc5c(c4)OCO5)ccc3n3cnnc23)cc1` [Methyl (4-{7-[(1,3-benzodioxol-5-ylmethyl)-carbamoyll-5-oxo-5H-[1,2,4]triazolo[4,3-a]quinazolin-4-ylmethyl}-phenyl)-acetate], the concentration for half-maximal inhibition (IC50) amounted to 0.0022 µM.

On to `COC(=O)Cc1ccc(Cn2c(=O)c3cc(C(=O)NCc4ccc(OC)cc4)ccc3n3cnnc23)cc1` [Methyl (4-{7-[(4-methoxy)-benzylcarbamoyl]-5-oxo-5H-[1,2,4]triazolo[4,3-a]quinazolin-4-ylmethyl}-phenyl)-acetate], for which the 50% inhibitory concentration (IC50) is 0.0029 µM.

Molecule `COC(=O)Cc1ccc(Cn2c(=O)c3cc(C(=O)NCc4ccncc4)ccc3n3cnnc23)cc1` [Methyl (4-{7-[(pyridin-4-yl)-methylcarbamoyl]-5-oxo-5H-[1,2,4]triazolo[4,3-a]quinazolin-4-ylmethyl}-phenyl)-acetate] yielded an IC50 of 0.013 µM.

Consider `COc1ccc(CNC(=O)c2ccc3c(c2)c(=O)n(Cc2ccccc2)c2nncn32)cc1` [N-(4-Methoxybenzyl)-4-benzyl-5-oxo-4,5-dihydro[1,2,4]triazolo [4,3-a]quinazoline-7-carboxamide], for which 0.0055 µM corresponded to half-maximal inhibition (IC50).

In turn, `O=C(NCc1ccncc1)c1ccc2c(c1)c(=O)n(C/C=C/c1ccncc1)c1nncn21` [N-(pyridin-4-ylmethyl) 4-[3-(pyridin-4-yl)-2-propen-1-yl]-5-oxo-4H-[1,2,4]triazolo[4,3-a]quinazol-7-ylcarboxamide] gave a half-maximal inhibitory concentration (IC50) of 0.35 µM.

`N#Cc1ccc(Cn2c(=O)c3cc(C(=O)NCc4ccncc4)ccc3n3cnnc23)cc1` [N-(pyridin-4ylmethyl)-4-(4-cyanobenzyl)-5-oxo-4H-[1,2,4]triazolo[4,3-a]quinazol-7-ylcarboxamide] had a 50% inhibitory concentration (IC50) of 0.021 µM.

In the case of `O=C(NCCCSc1ccncc1)c1ccc2c(c1)c(=O)n(Cc1ccccc1)c1nncn21` [N-[3-(4-Pyridylsulphanyl)propyl]-4-benzyl-5-oxo-4,5-dihydro[1,2,4]triazolo[4,3-a]quinazoline-7-carboxamide], the IC50 worked out at 0.185 µM.

`O=C(OCc1ccccc1)c1ccc2c(c1)c(=O)n(Cc1ccccc1)c1nncn21` [Synthesis Example 55, Benzyl 4-benzyl-5-oxo-4H-[1,2,4]triazolo[4,3-a]quinazol-7-ylcarboxylate] returned a concentration for half-maximal inhibition (IC50) of 0.0034 µM.

For `O=C(OCc1ccncc1)c1ccc2c(c1)c(=O)n(Cc1ccccc1)c1nncn21` [Synthesis Example 56, 4-Pyridylmethyl 4-benzyl-5-oxo-4H-[1,2,4]triazolo[4,3-a]quinazol-7-yl-carboxylate], the IC50 was determined as 0.0023 µM.

Molecule `O=C(NCc1ccc2c(c1)OCO2)c1ccc2c(c1)c(=O)n(Cc1ccccc1)c1nncn21` [Synthesis Example 57, N-(3,4-Methylenedioxybenzyl)-4-benzyl-5-oxo-4H-[1,2,4]triazolo[4,3-a]quinazol-7-ylcarboxamide] had a 50% inhibitory concentration (IC50) of 0.004 µM.

Molecule `N#Cc1ccc(Cn2c(=O)c3cc(C(=O)NCc4ccc5c(c4)OCO5)ccc3n3cnnc23)cc1` [Synthesis Example 58, N-(3,4-Methylenedioxybenzyl)-4-(4-cyanobenzyl)-5-oxo-4H-[1,2,4]triazolo[4,3-a]quinazol-7-ylcarboxamide] gave a 50% inhibitory concentration (IC50) of 0.0023 µM.

With `COc1ccc(CNC(=O)c2ccc3c(c2)c(=O)n(Cc2ccc(C(=O)O)cc2)c2nncn32)cc1` [Synthesis Example 60, 4-{7-[(4-Methoxybenzyl)-carbamoyl]-5-oxo-5H-[1,2,4]triazolo[4,3-a]quinazol-4-ylmethyl}benzoic acid], the IC50 is 0.0011 µM.

The assay is the same for the next values; noted with them: IC50 μM, Table VII; MMP-13.
In the case of `COC(=O)c1ccc(Cn2c(=O)c3cc(C#CCc4ccc(OC)cc4)ccc3n(C)c2=O)cc1` [Synthesis Example 66, Methyl 4-{6-[3-(4-methoxyphenyl)-prop-1-ynyl]-1-methyl-2,4-dioxo-1,4-dihydro-2H-quinazolin-3-ylmethyl}-benzoate], half-maximal inhibition (IC50) required 0.01 µM.

Molecule `COc1ccc(CC#Cc2ccc3c(c2)c(=O)n(Cc2ccc(C(=O)O)cc2)c(=O)n3C)cc1` [Synthesis Example 68, 4-{6-[3-(4-Methoxy-phenyl)-prop-1-ynyl]-1-methyl-2,4-dioxo-1,4-dihydro-2H-quinazolin-3-ylmethyl}-benzoic acid] yielded a concentration for half-maximal inhibition (IC50) of 0.0006 µM.

Take `Cn1c(=O)n(Cc2ccc(C(=O)O)cc2)c(=O)c2cc(C#CCc3ccccc3)ncc21` [Synthesis Example 69, 4-[1-Methyl-2,4-dioxo-6-(3-phenyl-prop-1-ynyl)-1,4-dihydro-2H-pyrido[3,4-d]pyrimidin-3-ylmethyl]-benzoic acid]: the IC50 came to 0.0065 µM.

`COc1ccc(CC#Cc2cc3c(=O)n(Cc4ccc(C(=O)O)cc4)c(=O)n(C)c3cn2)cc1` [Synthesis Example 70, 4-{6-[3-(4-Methoxy-phenyl)-prop-1-ynyl]-1-methyl-2,4-dioxo-1,4-dihydro-2H-pyrido[3,4-d]pyrimidin-3-ylmethyl}-benzoic acid] displayed a concentration for half-maximal inhibition (IC50) of 0.0012 µM.

In turn, `O=c1c2cc(C#CCc3ccccc3)ccc2n2cnnc2n1Cc1ccccc1` [Synthesis Example 71, 4-Benzyl-7-(3-phenyl-prop-1-ynyl)-4H-[1,2,4]triazolo[4,3-a]quinazolin-5-one] registered an IC50 of 0.0055 µM.

Turning to `COc1ccc(CC#Cc2ccc3c(c2)c(=O)n(Cc2ccccc2)c2nncn32)cc1` [Synthesis Example 72, 4-Benzyl-7-[(4-methoxyphenyl)-prop-1-ynyl]-4H-[1,2,4]-triazolo[4,3-a]quinazolin-5-one], the IC50 came out at 0.0015 µM.

Molecule `COC(=O)c1ccc(Cn2c(=O)c3cc(C#CCc4ccc(OC)cc4)ccc3n3cnnc23)cc1` [Synthesis Example 73, Methyl 4-{7-[3-(4-methoxy-phenyl)-prop-1-ynyl]-5-oxo-5H-[1,2,4]triazolo[4,3-a]quinazolin-4-ylmethyl}-benzoate] displayed a 50% inhibitory concentration (IC50) of 0.0017 µM.

Consider `O=C(O)c1ccc(Cn2c(=O)c3cc(C#CCc4ccccc4)ccc3n3cnnc23)cc1` [Synthesis Example 74, 4-[5-Oxo-7-(3-phenyl-prop-1-ynyl)-5H-[1,2,4]triazolo[4,3-a]quinazolin-4-ylmethyl]-benzoic acid], for which the concentration for half-maximal inhibition (IC50) was determined as 0.001 µM.

Staying with this assay, now noted: MMP13 IC50 μM, Table IVb.
On to `COC(=O)c1ccc(Cn2c(=O)c3cc(C(=O)NCc4ccc(OC)cc4)ncc3n(C)c2=O)cc1` [Methyl 4-[6-(4-Methoxy-benzylcarbamoyl)-1-methyl-2,4-dioxo-1,4-dihydro-2H-pyrido[3,4-d]pyrimidin-3-ylmethyl]-benzoate], for which the 50% inhibitory concentration (IC50) turned out to be 0.0017 µM.

Staying with this assay, now noted: MMP13 IC50 (nM), Table II.
Take `COc1ccc(CNC(=O)c2cc(C(=O)NCc3ccc4c(c3)OCO4)ccc2OC)cc1` [N-1,3-Benzodioxol-5-ylmethyl-4-methoxy-N′-(4-methoxy-benzyl)-isophthalamide]: the IC50 was 0.2 µM and 0.19 µM.

On to `COc1ccc(C(=O)NCc2ccc3c(c2)OCO3)cc1C(=O)NCc1ccc(Cl)cc1` [N-1,3-Benzodioxol-5-ylmethyl-N′-(4-chloro-benzyl)-4-methoxy-isophthalamide], for which the 50% inhibitory concentration (IC50) stood at 0.4 µM.
